Assay results as given in patent US10675267B2, “Methods for detection and eradication of myeloid leukemia stem cells” (priority 2015, dated 2020).
Entries after “also recorded” stand apart in the source; their conditions may differ.

Key:
[1] = system: CD34+ cells from normal aged bone marrow; assay: SL/M2 stromal co-culture with colony and replating assays, normal bone marrow; type: cell-based, human; conditions: normal aged bone marrow samples
Protocol: (§1) In hypothesis-driven experiments, the splicing modulatory compound 17S-FD-895 was tested to determine efficacy in altering splicing activity in cell lines, and to evaluate effects on AML LSC survival and self-renewal capacity in humanized bone marrow stromal co-cultures and in PRIMAGRAFT™ AML LSC models. Cell culture experiments were performed using 293T and sAML (MOLM-13) cell lines, and SL and M2 bone marrow stromal cell lines. Animal studies were performed using immunocompromised Rag2−/−γc−/−[20] or NOD/SCID-IL2RG mice (Jackson Laboratory, Bar Harbor, Me.). Primary AML and normal control samples were used in in vitro hematopoietic stem and progenitor assays after bone marrow stromal co-culture and treatment with splicing modulatory compounds (FD-895 or 17S-FD-895) or vehicle control (DMSO). Colony formation potential and self-renewal capacity were assessed by counting colony numbers (survival) after two weeks of growth in semi-solid (methylcellulose) media, and subsequent replating capacity (self-renewal) was assessed after transfer to fresh methylcellulose for an additional two weeks of culture. Three primary AML samples were utilized to establish PRIMAGRAFT™ models in immunocompromised mice, and mice engrafted with cells from two of these models (AML-37 and AML-08) were treated with 17S-FD-895 or vehicle (DMSO) to evaluate changes in AML LSC survival and self-renewal capacity in vivo. Data were collected by flow cytometry and qRT-PCR analysis of CD34-selected human LSC-enriched cells from engrafted mice.
(§2) Bone marrow SL/M2 monolayers were established from freshly inactivated (irradiated) cells and then human CD34^+ cells selected from AML primary samples (n=8) and normal controls (CD34^+ cells from cord blood, CB, n=6; or aged bone marrow, n=6) were added. Survival and self-renewal of the CD34+ cells were investigated by methylcellulose-based colony and replating assays. Two SF3B1-targeted splicing modulators, FD-895 or 17S-FD-895, were added at the initiation of co-culture at concentrations ranging from 0.1 to 10 μM.
(§3) As previously described (Goff et al., 2013), humanized bone marrow SL/M2 monolayers were inactivated (irradiated) and then human CD34^+ cells selected from AML primary samples and normal controls were added for two weeks of co-culture, followed by methylcellulose-based colony and replating assays. FD-895 or 17S-FD-895 were added at the initiation of co-culture, with DMSO as a vehicle control.

[2] = system: AML LSC (CD34+ cells from AML primary samples); assay: SL/M2 stromal co-culture with colony formation (survival) and replating (self-renewal) assays, AML; type: cell-based, human; conditions: two weeks SL/M2 co-culture, 0.1-10 μM, versus DMSO
Protocol: as §1, §2
Mouse bone marrow stromal cell lines (SL and M2 mycoplasma-free authenticated cells obtained from ATCC) expressing human interleukin-3 (IL-3), stem cell factor (SCF) and granulocyte-colony stimulating factor (G-CSF), which support erythroid and myeloid cell expansion and differentiation, were maintained under standard culture conditions, as previously described. Briefly, SL cells were grown in complete medium containing DMEM (Corning), 10% FBS, 1% Glutamax, and 1% penicillin-streptomycin (Life Technologies), while M2 cells were grown in complete medium containing RPMI, 10% FBS, 1% Glutamax, and 1% penicillin-streptomycin (all from Life Technologies). Every four passages, cells were selected by addition of G418 and hygromycin to the culture media for one passage (3-4 days), to maintain human cytokine expression. All cell lines were maintained in T-25 or T-75 culture flasks and were passaged at dilutions of 1:5-1:10 every 2-4 days. Low passage aliquots of cells were thawed every two months to ensure consistency of experiments.
as §3
Mouse bone marrow stromal cell lines (SL and M2 mycoplasma-free authenticated cells obtained from ATCC) expressing human interleukin-3 (IL-3), stem cell factor (SCF) and granulocyte-colony stimulating factor (G-CSF), which support erythroid and myeloid cell expansion and differentiation (Hogge et al., 1996), were maintained under standard culture conditions, as previously described (Goff et al., 2013). […]

## CCC(OC)C(C)C1OC1C(O)C(C)/C=C/C=C(\C)C1OC(=O)CC(O)CCC(C)(O)C(OC(C)=O)/C=C/C1C (stereo not shown) [FD-895, reference compound]
[1]
  erythroid colony formation and self-renewal: not significantly changed; also recorded: no effect on erythroid colonies
  granulocyte-macrophage (myeloid) colony survival: slight decrease; also recorded: reduces myeloid colony formation
[2]
  AML LSC self-renewal (colony replating): dose-dependent reduction; also recorded: reduced AML LSC self-renewal
  AML LSC survival (colony formation): dose-dependent reduction; also recorded: reduced AML LSC survival
